The source of these data is US12187722B2, “Small molecule inhibitors of TEAD transcription factors” (The General Hospital Corporation, priority 2019, dated 2025).

Each structure is given as a SMILES string. Several values for one entry are separate records, joined by “and”; a condition that tells them apart may be missing. Equal entries are not always repeated.

TEAD2, sequence (Q15562 whole entry): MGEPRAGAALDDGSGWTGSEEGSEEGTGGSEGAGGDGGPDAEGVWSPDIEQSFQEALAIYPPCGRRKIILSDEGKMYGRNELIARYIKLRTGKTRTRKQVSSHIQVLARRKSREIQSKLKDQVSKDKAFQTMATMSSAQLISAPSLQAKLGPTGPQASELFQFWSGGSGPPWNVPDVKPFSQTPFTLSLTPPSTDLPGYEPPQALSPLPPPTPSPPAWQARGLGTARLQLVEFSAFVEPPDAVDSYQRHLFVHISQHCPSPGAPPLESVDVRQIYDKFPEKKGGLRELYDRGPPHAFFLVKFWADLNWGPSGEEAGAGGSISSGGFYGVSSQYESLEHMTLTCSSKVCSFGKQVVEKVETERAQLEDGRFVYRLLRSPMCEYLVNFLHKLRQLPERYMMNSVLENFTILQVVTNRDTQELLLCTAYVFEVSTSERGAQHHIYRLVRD

The target in the first experiment is TEAD2 (Homo sapiens (Human), UniProt Q15562). Briefly: In vitro palmitoylation (TEAD2 autopalmitoylation, streptavidin blot). The experiment is classed as biochemical. The note with it: Table 2, result printed in words. The procedure:
Recombinant GST-TEAD2 or His6TEAD2 (500 ng) protein was pre-incubated with the compounds at indicated concentrations for 15 min. and then incubated with 1 μM of alkyne palmitoyl-5 CoA (Cayman Chemical) for 30 min or 50 mM MES, pH 6.4, followed by Click reaction with biotin-azide as previously described (Zheng, B. et al., J. Am. Chem. Soc., 2013, 135, 7082-7085). Click reaction was performed with 100 μM biotin-azide, 1 mM tris(2-carboxyethyl) phosphine hydrochloride (TCEP), 100 μM tris[(1-benzyl-1H-1,2,3-triazol-4-yl) methyl] amine (TBTA) and 1 mM CuSO4 for 1 h at RT.
The reactions were terminated by the addition of 12 μL of 6×SDS-sample loading buffer (50 mM Tris-HCl, pH 6.8, 6% SDS, 48% Glycerol, 0.03% Bromophenol Blue, 30 mM EDTA, 9% MeSH). Samples were analysed by SDS-PAGE and Western blot was performed by probing with streptavidin HRP and histidine HRP antibodies independently. Bands intensity obtained from streptavidin blot were quantified using BIORAD, Gel doc system and the percentage of inhibition of Tead2 auto palmitoylation is determined by comparing to the DMSO control treated samples.
These compounds were tested for activity in inhibiting TEAD2 palmitoylation in the assay described above.
On to `O=C(O)c1ccccc1Nc1ccc(-c2cnc(-c3ccccc3)s2)cc1` [Compound 68], for which the “inhibition of TEAD2 palmitoylation (YES/NO)” value is reported as “YES”.

Staying with this experiment, now noted: compound at 10 μM; Table 2.
What is called inhibition is the share of the control response that was lost under treatment. Read a high inhibition as a strong effect. Regarding `COC(=O)c1ccccc1Nc1ccc(C(=O)Nc2ccc(C34CC5CC(CC(C5)C3)C4)cc2)cc1` [Compound 4], testing at 10 µM gave an inhibition of 0%.
Regarding `COC(=O)c1ccccc1Nc1ccc(C(=O)Nc2ccc(C34CC5CC(CC(C5)C3)C4)cc2Br)cc1` [Compound 5], 10 µM produced 0% inhibition.
The same measure, in the same setting: for `COC(=O)c1ccccc1Nc1ccc(C(=O)Nc2ccc(C34CC5CC(CC(C5)C3)C4)cc2Cl)cc1` [Compound 6] the value was 0%; for `N#Cc1ccccc1Nc1ccc(Nc2ccc(C34CC5CC(CC(C5)C3)C4)cc2Cl)cc1` [Compound 7], 30%.
Regarding `Clc1cc(C23CC4CC(CC(C4)C2)C3)ccc1Nc1ccc(Cn2cncn2)cc1` [Compound 9], testing at 10 µM gave an inhibition of 76%.
The compound `Clc1cc(C23CC4CC(CC(C4)C2)C3)ccc1Nc1ccc(Nc2ccccn2)cc1` [Compound 10] gave an inhibition at 10 µM of 0%.
Still for that read-out and setting: for `O=C1CC[n+]2ccccc2N1c1ccc(Nc2ccc(C34CC5CC(CC(C5)C3)C4)cc2Cl)cc1` [Compound 11] the value was 0%; for `CN(c1ccc(Nc2ncccc2C(=O)OCCO)cc1)c1ccc(C23CC4CC(CC(C4)C2)C3)cc1Cl` [Compound 12], 85%.
Same read-out and setting: with `Cc1ccccc1Nc1ccc(Nc2ccc(C34CC5CC(CC(C5)C3)C4)cc2)cc1` [Compound 13] the figure was 26%; with `CCOC(=O)/C=C/c1ccccc1Nc1ccc(Nc2ccc(C34CC5CC(CC(C5)C3)C4)cc2)cc1` [Compound 14], 0%; with `O=C1CCc2ccccc2N1c1ccc(Nc2ccc(C34CC5CC(CC(C5)C3)C4)cc2)cc1` [Compound 15], 12%.
Same read-out and setting: with `CCOC(=O)c1cccc(Nc2ccc(C(=O)Nc3ccc(C45CC6CC(CC(C6)C4)C5)cc3)cc2)n1` [Compound 16] the figure was 0%; with `COC(=O)c1cccnc1Nc1ccc(Nc2ccc(C34CC5CC(CC(C5)C3)C4)cc2Cl)cc1` [Compound 17], 7%.
With `O=S1(=O)N=C(Nc2ccc(Nc3ccc(C45CC6CC(CC(C6)C4)C5)cc3Cl)cc2)c2ccccc21` [Compound 18], the inhibition at 10 µM was 35%.
Still for that read-out and setting: for `COc1cccc2c1S(=O)(=O)N=C2Nc1ccc(C23CC4CC(CC(C4)C2)C3)cc1` [Compound 19] the value was 35%.
Consider `O=C(O)c1ccccc1Nc1ccc(Nc2ccc(C34CC5CC(CC(C5)C3)C4)cc2)cc1` [Compound 24, 2-((4-((4-((3R,5R)-adamantan-1-yl)phenyl)amino)phenyl)amino)benzoic acid], for which the inhibition at 10 µM worked out at 56%.
Compound `O=C(O)c1ccccc1Nc1cccc(Nc2ccc(C34CC5CC(CC(C5)C3)C4)cc2)c1` [Compound 25] returned an inhibition at 10 µM of 90%.
Still for that read-out and setting: with `O=C(O)c1ccccc1Nc1cc(Nc2ccc(C34CC5CC(CC(C5)C3)C4)cc2)cc(C(F)(F)F)c1` [Compound 26] the figure was 90%; with `O=C(O)c1cccnc1Nc1cc(Nc2ccc(C34CC5CC(CC(C5)C3)C4)cc2)cc(C(F)(F)F)c1` [Compound 27], 90%.
Same read-out and setting: for `Cc1ccc(Nc2cc(Nc3ccc(C45CC6CC(CC(C6)C4)C5)cc3)cc(C(F)(F)F)c2)c(C(=O)O)c1` [Compound 28] the value was 10%; for `O=C(O)c1cc(C(F)(F)F)ccc1Nc1cc(Nc2ccc(C34CC5CC(CC(C5)C3)C4)cc2)cc(C(F)(F)F)c1` [Compound 29], 90%.
Same read-out and setting: for `O=C(O)c1ccccc1Nc1cc(F)cc(Nc2ccc(C34CC5CC(CC(C5)C3)C4)cc2)c1` [Compound 30] the value was 91%.
For the compound `Cc1cc(Nc2ccc(C34CC5CC(CC(C5)C3)C4)cc2)cc(Nc2ncccc2C(=O)O)c1` [Compound 32], at 10 µM the inhibition was 60%.
Consider `O=C(O)c1ccccc1Nc1cc(Nc2ccc(C34CC5CC(CC(C5)C3)C4)cc2Cl)cc(C(F)(F)F)c1` [Compound 33], for which at 10 µM the inhibition was 50%.
The same measure, in the same setting: with `O=C(O)c1ccccc1Nc1ccc(Nc2ccc(C34CC5CC(CC(C5)C3)C4)cc2)nc1` [Compound 34] the figure was 14%.
Turning to `O=C(Nc1ccc(C23CC4CC(CC(C4)C2)C3)cc1)c1ccc(Nc2ccccc2C(=O)O)cc1` [Compound 35], the “% of inhibition of TEAD2 palmitoylation at 10 μM” value (shortened to “% of inhibition … at 10 μM”) is 63% and 86%.
`O=C(Nc1ccc(C23CC4CC(CC(C4)C2)C3)cc1Br)c1ccc(Nc2ccccc2C(=O)O)cc1` [Compound 36] registered an inhibition at 10 µM of 100%.
`O=C(Nc1ccc(C23CC4CC(CC(C4)C2)C3)cc1Cl)c1ccc(Nc2ccccc2C(=O)O)cc1` [Compound 37] returned an inhibition at 10 µM of 30%.
`O=C(O)[C@@H]1CCCN1C(=O)Nc1ccc(C23CC4CC(CC(C4)C2)C3)cc1` [Compound 38] returned an inhibition at 10 µM of 7%.
Regarding `O=C(O)C1CCCC1Nc1ccc(Nc2ccc(C34CC5CC(CC(C5)C3)C4)cc2Cl)cc1` (centres unmarked) [Compound 39], the inhibition at 10 µM stood at 59%.
With `O=C(O)C1CCCC1Nc1ccc(Nc2ccc(C34CC5CC(CC(C5)C3)C4)cc2Cl)cc1` (centres unmarked) [Compound 40], the “% of inhibition … at 10 μM” value was 43%.
Consider `CC(C)c1ccccc1-c1ccc(Nc2ccc(Nc3ccccc3C(=O)O)cc2)c(Cl)c1` [Compound 41], for which the inhibition at 10 µM is 52%.
Same read-out and setting: with `O=C(O)C1CCCCC1Nc1ccc(Nc2ccc(C34CC5CC(CC(C5)C3)C4)cc2Cl)cc1` (centres unmarked) [Compound 46] the figure was 76%.
On to `O=C(O)C1CCCCC1Nc1ccc(Nc2ccc(C34CC5CC(CC(C5)C3)C4)cc2Cl)cc1` (centres unmarked) [Compound 47], for which the “% of inhibition … at 10 μM” value is reported as 83%.
On to `O=C(O)[C@@H]1CCCN1C(=O)c1ccc(Nc2ccc(C34CC5CC(CC(C5)C3)C4)cc2Cl)cc1` [Compound 48], for which the inhibition at 10 µM was determined as 87%.
As to `O=C(O)[C@@H]1CCCN1C(=O)Nc1ccc(Nc2ccc(C34CC5CC(CC(C5)C3)C4)cc2Cl)cc1` [Compound 50], testing at 10 µM gave an inhibition of 0%.
The same measure, in the same setting: with `Cc1ccccc1-c1ccc(Nc2ccc(Nc3ccccc3C(=O)O)cc2)c(Cl)c1` [Compound 51] the figure was 79%.
`O=C(O)[C@H]1CCCN1C(=O)Nc1ccc(Nc2ccc(C34CC5CC(CC(C5)C3)C4)cc2Cl)cc1` [Compound 52] registered an inhibition at 10 µM of 79%.
`O=C(O)c1ccccc1Nc1ccc(Nc2ccc(-c3ccccc3C(F)(F)F)cc2Cl)cc1` [Compound 53] gave an inhibition at 10 µM of 5%.
Compound `COc1ccccc1-c1ccc(Nc2ccc(Nc3ccccc3C(=O)O)cc2)c(Cl)c1` [Compound 56] registered an inhibition at 10 µM of 0%.
Still for that read-out and setting: with `O=C(O)c1ccccc1Nc1ccc(Nc2ccc(-c3ccccc3Cl)cc2Cl)cc1` [Compound 58] the figure was 60%; with `O=C(O)c1cccnc1Nc1ccc(Nc2ccc(C34CC5CC(CC(C5)C3)C4)cc2Cl)cc1` [Compound 59], 99%.
Compound `O=C(O)c1cccnc1Nc1ccc(C23CC4CC(CC(C4)C2)C3)cc1Cl` [Compound 60] gave an inhibition at 10 µM of 100%.
Same read-out and setting: for `Cc1ccccc1-c1cc(Cl)c(Nc2ccc(Nc3ccccc3C(=O)O)cc2)cc1C` [Compound 61] the value was 70%.
On the same count and under the same terms, for `O=C(O)c1ccccc1Nc1ccnc(Nc2ccc(C34CC5CC(CC(C5)C3)C4)cc2Cl)n1` [Compound 62] the value was 65%.
Turning to `O=C(O)C1CCCC1Nc1cc(Nc2ccc(C34CC5CC(CC(C5)C3)C4)cc2Cl)cc(C(F)(F)F)c1` (centres unmarked) [Compound 64], the inhibition at 10 µM was found to be 0%.
Still for that read-out and setting: for `O=C(O)C1CCCC1Nc1ccc(C23CC4CC(CC(C4)C2)C3)cc1` (centres unmarked) [Compound 65] the value was 74%; for `O=C(O)C1CCCCC1Nc1ccc(C23CC4CC(CC(C4)C2)C3)cc1` (centres unmarked) [Compound 66], 25%.
On the same count and under the same terms, for `CC(C)(C)OC(=O)N(c1cnc(Nc2ccc(C34CC5CC(CC(C5)C3)C4)cc2Cl)cn1)c1ccccc1C(=O)O` [Compound 74] the value was 31%.
In the case of `O=C(O)c1cnccc1Nc1ccc(Nc2ccc(C34CC5CC(CC(C5)C3)C4)cc2Cl)cc1` [Compound 75], testing at 10 µM gave an inhibition of 63%.
`CC(C)(C)OC(=O)N(c1ccc(Nc2ccc(C34CC5CC(CC(C5)C3)C4)cc2Cl)cn1)c1ccccc1C(=O)O` [Compound 76] registered an inhibition at 10 µM of 34%.
`O=C(N[C@H]1CCC[C@H]1C(=O)O)c1ccc(Nc2ccc(C34CC5CC(CC(C5)C3)C4)cc2Cl)cc1` [Compound 77] registered an inhibition at 10 µM of 52%.
The same measure, in the same setting: for `Cc1cc(C23CC4CC(CC(C4)C2)C3)cc(C)c1Nc1ccc(Nc2ccccc2C(=O)O)cc1` [Compound 79] the value was 45%.
On the same count and under the same terms, with `O=C(O)c1ccccc1Nc1ccc(Nc2ccc(C34CC5CC(CC(C5)C3)C4)cc2)cc1C(F)(F)F` [Compound 80] the figure was 40%; with `O=C(O)c1ccc(Nc2ccc(Nc3ccc(C45CC6CC(CC(C6)C4)C5)cc3)cc2)cc1` [Compound 81], 78%; with `O=C(O)c1ncccc1Nc1ccc(Nc2ccc(C34CC5CC(CC(C5)C3)C4)cc2Cl)cc1` [Compound 82], 67%.
On to `O=C(O)c1ccncc1Nc1ccc(Nc2ccc(C34CC5CC(CC(C5)C3)C4)cc2Cl)cc1` [Compound 83], for which testing at 10 µM gave an inhibition of 65%.
`O=C(O)c1cccc(Nc2ccc(Nc3ccc(C45CC6CC(CC(C6)C4)C5)cc3Cl)cc2)c1` [Compound 84] came in with an inhibition at 10 µM of 98%.
